Where a name gives a salt, the structure may show the parent alone.

The target of one assay is T1, 5-HT1A receptor (Rattus norvegicus, UniProt P19327).
T1 construct: synaptosomal membranes isolated from cerebral cortex; from tissue; host or cells: rat cerebral cortex, crude synaptosomal membranes (male Sprague-Dawley rats, Harlan Industries)
T1 sequence (P19327 1-422): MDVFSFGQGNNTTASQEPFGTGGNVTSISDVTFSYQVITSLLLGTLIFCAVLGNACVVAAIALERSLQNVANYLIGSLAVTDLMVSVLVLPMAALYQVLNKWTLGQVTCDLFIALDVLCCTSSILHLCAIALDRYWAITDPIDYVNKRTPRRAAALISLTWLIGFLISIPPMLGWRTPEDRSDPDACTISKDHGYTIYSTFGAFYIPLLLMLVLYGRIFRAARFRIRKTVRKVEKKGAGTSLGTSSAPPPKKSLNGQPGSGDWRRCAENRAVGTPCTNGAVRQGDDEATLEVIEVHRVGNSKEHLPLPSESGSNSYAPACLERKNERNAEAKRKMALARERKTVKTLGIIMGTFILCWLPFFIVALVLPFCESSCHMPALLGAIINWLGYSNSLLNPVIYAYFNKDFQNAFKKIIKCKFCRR
Put plainly: Inhibition of 3H-8-OH-DPAT binding to rat cerebral cortex synaptosomal membranes (binding at 5HT1a in vitro). Also on record: species or system rat (male Sprague-Dawley).
Conditions: not given
On the procedure:
This general procedure is set forth in Wong et al., J. Neural Transm. 71:207-218 (1988).
Male Sprague-Dawley rats (110-150 g) from Harlan Industries (Cumberland, Ind.) were fed a Purina Chow ad libitum for at least 3 days before being used in the studies. Rats were killed by decapitation. The brains were rapidly removed, and the cerebral cortices were dissected out at 4° C.
Brain tissues were homogenized in 0.32M sucrose. After centrifugation at 1000×g for 10 min and then at 17000×g for 20 min, a crude synaptosomal fraction was sedimented. The pellet was suspended in 100 vol of 50 mM Tris-HCl, pH 7.4, incubated at 37° C. for 10 min, and centrifuged at 50000×g for 10 min. The process was repeated and the final pellet was suspended in ice-chilled 50 mM Tris-HCl, pH 7.4. By the radioligand binding method, sites specifically labeled by tritiated 8-hydroxy-2-dipropylamino-1,2,3,4-tetrahydronaphthalene (^3 H-8-OH-DPAT) have been identified as 5-HT1A receptors.
Binding of (^3 H-8-OH-DPAT) was performed according to the previously described method [Wong et al., J. Neural Transm. 64:251-269 (1985)]. Briefly, synaptosomal membranes isolated from cerebral cortex were incubated at 37° C. for 10 min. in 2 ml of 50 mM Tris-HCl, pH 7.4; 10 μM pargyline; 0.6 mM ascorbic acid; 0.4 nM ^3 H-8-OH-DPAT; and from 1 to 1000 nM of test compound. Binding was terminated by filtering samples under reduced pressure through glass fiber (GFB) filters. The filters were washed twice with 5 ml of ice cold buffer and placed in scintillation vials with 10 ml of PCS (Amersham/Searle) scintillation fluid. Radioactivity was measured with a liquid scintillation spectrometer. Unlabeled 8-OH-DPAT at 10 μM was also included in separate samples to establish non-specific binding. Specific binding of ^3 H-8-OH-DPAT is defined as the difference of radioactivity bound in the absence and in the presence of 10 μM unlabeled 8-OH-DPAT.
For `CCCN(CCC)C1CCc2cccc(C(=O)C(C)(C)C)c2C1` (stereo not drawn) [Example 7, 2-Di-n-propylamino-8-dimethylpropionyl-1,2,3,4-tetrahydronaphthalene, hydrobromide salt], the IC50 was found to be 9 nM.

The assay is the same for the next values; noted with them: rat cerebral cortex membranes; 0.4 nM 3H-8-OH-DPAT; 37° C., 10 min; pH 7.4; read-out: IC50, concentration of test compound required to inhibit the binding of 3H-8-OH-DPAT by 50%.
On to `CCCN(CCC)C1CCc2cccc(C(=O)C3CCCCC3)c2C1` (stereo not drawn) [Example 8, 2-Di-n-propylamino-8-cyclohexanecarbonyl-1,2,3,4-tetrahydronaphthalene, oxalate salt], for which the IC50 amounted to 0.5 nM.

In the case of `CCCN(CCC)C1CCc2cccc(C(=O)c3ccccc3)c2C1` (stereo not drawn) [Example 9, 2-Di-n-propylamino-8-benzoyl-1,2,3,4-tetrahydronaphthalene, tosylate salt], the IC50 turned out to be 3.7 nM.

Turning to `CCCCC(=O)c1cccc2c1CC(N(CCC)CCC)CC2` (stereo not drawn) [Example 1, 2-Di-n-propylamino-8-pentanoyl-1,2,3,4-tetrahydronaphthalene, oxalate salt], the IC50 worked out at 2.2 nM.

As for `CCCN(CCC)C1CCc2cccc(C(=O)CC)c2C1` (stereo not drawn) [Example 3, 2-Di-n-propylamino-8-propionyl-1,2,3,4-tetrahydronaphthalene, oxalate salt], the IC50 is 0.8 nM.

As for `CCCN(CCC)C1CCc2cccc(C(=O)c3ccccc3F)c2C1` (stereo not drawn) [Example 11, 2-Di-n-propylamino-8-(o-fluorobenzoyl)-1,2,3,4-tetrahydronaphthalene, p-toluenesulfonic acid salt], the IC50 was found to be 0.8 nM.

With `CCCN(CCC)C1CCc2cccc(C(=O)C(C)C)c2C1` (stereo not drawn) [Example 5, 2-Di-n-propylamino-8-(α-methylpropionyl)-1,2,3,4-tetrahydronaphthalene, hydrobromide salt], the IC50 amounted to 0.4 nM.

On to `CCCC(=O)c1cccc2c1CC(N(CCC)CCC)CC2` (stereo not drawn) [Example 4, 2-Di-n-propylamino-8-butanoyl-1,2,3,4-tetrahydronaphthalene,hydrobromide salt], for which the IC50 was determined as 3 nM.

With `CCCN(CCC)C1CCc2cccc(C(=O)C(F)(F)F)c2C1` (stereo not drawn) [Example 2, 2-Di-n-propylamino-8-trifluoroacetyl-1,2,3,4-tetrahydronaphthalene, hydrobromide salt], the IC50 came out at 29 nM.

Regarding `CCCN(CCC)C1CCc2cccc(C(=O)COC)c2C1` (stereo not drawn) [Example 12, 2-Di-n-propylamino-8-(methoxyacetyl)-1,2,3,4-tetrahydronaphthalene oxalate], the IC50 was 5.8 nM.

With `CCCN(CCC)C1CCc2cccc(C(=O)CC(C)C)c2C1` (stereo not drawn) [Example 6, 2-Di-n-propylamino-8-(β-methylbutyryl)-1,2,3,4-tetrahydronaphthalene,hydrobromide salt], the IC50 is 0.4 nM.

In the case of `CCCN(CCC)C1CCc2cccc(C(C)=O)c2C1` (stereo not drawn) [Example 13, 2-Di-n-propylamino-8-acetyl-1,2,3,4-tetrahydronaphthalene], the IC50 was 0.8 nM.
